# From article PMC6773697, “Antileukemic activity of novel adenosine derivatives” (Scientific Reports, 2019)
# Key:
# Assay type in all cases: cell-based, human
# HL-60 cells = experiment: Alkaline comet assay, HL-60; settings: HL-60, 48 h
# Method: (§1) Single cell gel electrophoresis (comet assay) was used to detect alkali labile sites, single and double DNA strand breaks, and cross-links induced by genotoxic agents. After electrophoresis and gel staining with 4,6-diamidino-2-phenylindole (DAPI), the released DNA was visible under a fluorescence microscope as a characteristic comet tail. The cells were plated on 24-well plates (20,000 cells/mL) and treated with CLA, CLA-FMOR, CLA-FPIP, or CLA-FPIR at the indicated concentrations for 2, 24, and 48 h at 37 °C. Some cells were preincubated with an ATR kinase inhibitor (VE-821) for 1 h at 37 °C before adding the tested compounds. Next, cells were collected into Eppendorf tubes and rinsed with PBS. Then, cells were suspended in 0.75% low melting point (LMP) agarose dissolved in PBS (pH 7.4) and placed on microscope slides precoated with 0.5% normal melting point (NMP) agarose. […] The slides were stored in a wet chamber at 4 °C and analyzed under a fluorescence microscope. Fifty randomly selected cells from each slide were measured using image analysis (Nikon, Japan) attached to a COHU 4910 video camera, which was equipped with a UV-1 filter block consisting of an excitation filter (359 nm) and a barrier filter (461 nm) connected to the image analysis system Lucia-Comet v. […] In the samples preincubated with VE-821, the level of DNA damage associated with the ATR kinase was determined.
# MOLT-4 cells [1] = experiment: Comet assay with proteinase K post-treatment (DNA-protein cross-links), MOLT-4; settings: MOLT-4, 24 h
# Method: as §1, with “determined. […]” for “determined.”
# MOLT-4 cells [2] = experiment: Cell cycle analysis by flow cytometry, MOLT-4; settings: 80 nM, +VE-821 = 1 h preincubation
# Method: Cellular DNA content was quantified by flow cytometry. Cells were treated with drugs for 2, 24, and 48 h. For experiments with inhibitors, cells were subjected to 1 h preincubation with VE-821. CLA, CLA-FMOR, CLA-FPIP, or CLA-FPIR was added, and incubation continued for the indicated times under the same conditions. After incubation was completed, cells were collected, washed twice with PBS, and fixed in 70% ethanol. After ethanol fixation (at least 24 h at 4 °C), cells were washed in PBS and centrifuged at 7,000 × g for 10 min at 4 °C. Pelleted cells were stained by adding 300 µL PBS containing PI and RNase at final concentrations of 75 µM and 20 µg/mL, respectively. This was followed by 1 h incubation in total darkness at 37 °C. Stained cells were analyzed using a flow cytometer (Becton Dickinson, San Jose, CA, USA). The cell populations at specific phases of the cell cycle were quantified from a standard count of 10,000 cells using FlowJo cytology software (Ashland, OR, USA)[39],[40].
# γH2AX in HL-60 cells = experiment: H2AX (phospho S139) In-Cell ELISA, HL-60; settings: HL-60, 48 h, versus control cells
# Method: The level H2AX protein phosphorylated Ser139 was measured in tested leukemia cells by using of In-Cell ELISA, ICE assay kit. The cells were seeded on 96-well plates (100 × 10^3/well) and 48 h later, incubated with the appropriate compounds. In some experimental variants, cells were preincubated for 1 h with VE-821 (10 µM). The cells were fixed by adding a final concentration of 4% paraformaldehyde solution (10 min, room temperature). After 2 h of Block Solution incubation, cells were treated with a highly specific antibody. A rabbit monoclonal antibody specific to H2AX (phospho S139) was used (at 1:100, 2 h incubation). Next Secondary Antibody Solution (at 1:1000) were added to the cells. The measurements were obtained on a fluorescence plate reader at an excitation wavelength of 680 nm and emission at 694 nm. The cells were PBS washed and 100 µL of Janus Green Stain was added to each well of the plate (5 min., room temperature). The data were collected at excitation wavelength of 750 nm and emission at 800 nm channel (Fluoroskan Cary Eclipse). Antibody signal intensity was normalized to the total amount using Janus Green cell-stain.
# MOLT-4 cells [3] = experiment: Alkaline comet assay, MOLT-4; settings: MOLT-4, 48 h, 80 nM
# Method: as §1
# [4] = tested on: caspase-3/7 in HL-60 cells; experiment: Caspase 3/7 assay, HL-60; settings: HL-60, 48 h
# Method: The activities of caspases-3 and −7 were estimated with CellEvent™ Caspse-3/7 Green Detection Reagent (Thermo Fisher Scientific) according to the manufacturer’s protocol. The cells were seeded on 96-well plates (15 × 10^3/ well) and 24 h later, incubated with the appropriate drugs for 24 h or 48 h. The cells were fixed by adding a final concentration of 4% paraformaldehyde solution (10 min, room temperature). Cells were labeled with CellEvent™Caspase-3/7 Green Detection Reagent (5 µM), followed by Hoechst 33342 (5 µg/ml) for 15 minutes in complete medium3. Caspase-3/7 Green Detection Reagent was diluted into PBS with 5% FBS to avoid fluorescence background. After activation of caspase-3/7 in apoptotic cells, the DEVD peptide was cleaved, enabling the dye to bind DNA, which produced a bright, fluorogenic response with absorption/emission maxima of 502/530 nm according with manufacture protocol. Fluorescence intensity was measured using a Fluoroskan Ascent FL plate reader (Labsystem, Sweden). Cysteine protease activity was expressed as a ratio of fluorescence of the drug-treated samples to the corresponding untreated controls (taken as 100%). In some experimental variants, cells were preincubated for 1 h with VE-821 (10 µM) or Z-FA-FMK (caspas-3 inhibitor, 0.5 µM) to confirm that the fluorescence observed in both control and drug-treated cells was due to the presence of caspase-3/7 in samples. The caspase 3/7 signal was normalized to the Hoechst 33342 staining intensity to account for differences in cell seeding density (description in: Intracellular calcium assay section).
SMILES,DNA damage relative to that induced by the unmodified drug (HL-60 cells),"DNA fragmentation, percentage of the DNA in the comet tail (HL-60 cells; 130 nM)",percentage of DNA in the comet tail after proteinase K (MOLT-4 cells [1]),"MOLT-4 (48h) S, percentage share of cell cycle phase (MOLT-4 cells [2])",increase in γH2AX level (γH2AX in HL-60 cells),"DNA fragmentation, percentage of the DNA in the comet tail (MOLT-4 cells [3])",caspase-3/7 level [4]
"OC[C@H]1O[C@@H](n2cnc3c(N=CN4CCOCC4)nc(Cl)nc32)C[C@@H]1O [CLA-FMOR, [6-deamino-6-(N′, N′-3′-oxa-1′, 5′-pentamethyleneformamidine)] cladribine]",two-fold higher,24%,increase in the percentage of DNA in the comet tail,46%,~ 2.4 fold,27%,
"OC[C@H]1O[C@@H](n2cnc3c(N=CN4CCCC4)nc(Cl)nc32)C[C@@H]1O [CLA-FPIR, [6-deamino-6-(N′, N′-l′, 4′-tetramethyleneformamidino)] cladribine]",,,,,,,highest changes
